{
  "source": "patent US20060079566A1",
  "about": "“PDK-1/Akt signaling inhibitors” (priority 2003, published 2006)",
  "key": {"U251": {"test_system": "U251", "assay": "NCI DTP screen (SRB), CNS Cancer", "assay_type": "cell-based, human", "settings": "Homo sapiens, U-251", "description": "Screening of compounds 70 and 71 against several cancer cell lines The human tumor cell lines of the cancer screening panel are grown in RPMI 1640 medium containing 5% fetal bovine serum and 2 mM L-glutamine. For a typical screening experiment, cells are inoculated into 96 well microtiter plates in 100 μL at plating densities ranging from 5,000 to 40,000 cells/well depending on the doubling time of individual cell lines. After cell inoculation, the microtiter plates are incubated at 37° C., 5% CO2, 95% air and 100% relative humidity for 24 h prior to addition of experimental drugs. […]\n(§1) Following drug addition, the plates are incubated for an additional 48 h at 37° C., 5% CO2, 95% air, and 100% relative humidity. […] Bound stain is subsequently solubilized with 10 mM trizma base, and the absorbance is read on an automated plate reader at a wavelength of 515 nm. […] Using the seven absorbance measurements [time zero, (Tz), control growth, (C), and test growth in the presence of drug at the five concentration levels (Ti)], the percentage growth is calculated at each of the drug concentrations levels. Percentage growth inhibition is calculated as: [(Ti−Tz)/(C−Tz)]×100 for concentrations for which Ti>/=Tz [(Ti−Tz)/Tz]×100 for concentrations for which Ti<Tz\nThree dose response parameters are calculated for each experimental agent. […]"}, "PC-3": {"test_system": "PC-3", "assay": "NCI DTP screen (SRB), Prostate Cancer", "assay_type": "cell-based", "settings": "Homo sapiens", "description": "(§2) Screening of compounds 70 and 71 against several cancer cell lines The human tumor cell lines of the cancer screening panel are grown in RPMI 1640 medium containing 5% fetal bovine serum and 2 mM L-glutamine. For a typical screening experiment, cells are inoculated into 96 well microtiter plates in 100 μL at plating densities ranging from 5,000 to 40,000 cells/well depending on the doubling time of individual cell lines. After cell inoculation, the microtiter plates are incubated at 37° C., 5% CO2, 95% air and 100% relative humidity for 24 h prior to addition of experimental drugs.\n(§3) After 24 h, two plates of each cell line are fixed in situ with TCA, to represent a measurement of the cell population for each cell line at the time of drug addition (Tz). Experimental drugs are solubilized in dimethyl sulfoxide at 400-fold the desired final maximum test concentration and stored frozen prior to use. At the time of drug addition, an aliquot of frozen concentrate is thawed and diluted to twice the desired final maximum test concentration with complete medium containing 50 μg/ml gentamicin. Additional four, 10-fold or ½ log serial dilutions are made to provide a total of five drug concentrations plus control. Aliquots of 100 μl of these different drug dilutions are added to the appropriate microtiter wells already containing 100 μl of medium, resulting in the required final drug concentrations.\nas §1, with “humidity. For adherent cells, the assay is terminated by the addition of cold TCA. Cells are fixed in situ by the gentle addition of 50 μl of cold 50% (w/v) TCA (final concentration, 10% TCA) and incubated for 60 minutes at 4° C.” for “humidity.”\n(§4) Three dose response parameters are calculated for each experimental agent. […] The drug concentration resulting in total growth inhibition (TGI) is calculated from Ti=Tz. […] Values are calculated for each of these three parameters if the level of activity is reached; however, if the effect is not reached or is exceeded, the value for that parameter is expressed as greater or less than the maximum or minimum concentration tested."}, "DU-145": {"test_system": "DU-145", "assay": "NCI DTP screen (SRB), Prostate Cancer", "assay_type": "cell-based", "settings": "Homo sapiens", "description": "as §2, §3\nas §1, with “humidity. For adherent cells, the assay is terminated by the addition of cold TCA. Cells are fixed in situ by the gentle addition of 50 μl of cold 50% (w/v) TCA (final concentration, 10% TCA) and incubated for 60 minutes at 4° C.” for “humidity.”\nas §4"}, "UO-31": {"test_system": "UO-31", "assay": "NCI DTP screen (SRB), Renal Cancer", "assay_type": "cell-based, human", "settings": "Homo sapiens, UO-31", "description": "as §2, §3\n(§5) Following drug addition, the plates are incubated for an additional 48 h at 37° C., 5% CO2, 95% air, and 100% relative humidity. For adherent cells, the assay is terminated by the addition of cold TCA. Cells are fixed in situ by the gentle addition of 50 μl of cold 50% (w/v) TCA (final concentration, 10% TCA) and incubated for 60 minutes at 4° C. The supernatant is discarded, and the plates are washed five times with tap water and air dried. Sulforhodamine B (SRB) solution (100 μl) at 0.4% (w/v) in 1% acetic acid is added to each well, and plates are incubated for 10 minutes at room temperature. After staining, unbound dye is removed by washing five times with 1% acetic acid and the plates are air dried. Bound stain is subsequently solubilized with 10 mM trizma base, and the absorbance is read on an automated plate reader at a wavelength of 515 nm. For suspension cells, the methodology is the same except that the assay is terminated by fixing settled cells at the bottom of the wells by gently adding 50 μl of 80% TCA (final concentration, 16% TCA). Using the seven absorbance measurements [time zero, (Tz), control growth, (C), and test growth in the presence of drug at the five concentration levels (Ti)], the percentage growth is calculated at each of the drug concentrations levels. Percentage growth inhibition is calculated as: [(Ti−Tz)/(C−Tz)]×100 for concentrations for which Ti>/=Tz [(Ti−Tz)/Tz]×100 for concentrations for which Ti<Tz\nas §4"}, "RXP 393": {"test_system": "RXP 393", "assay": "NCI DTP screen (SRB), Renal Cancer", "assay_type": "cell-based, human", "description": "as §2, §3, §5, §4"}, "BT-549": {"test_system": "BT-549", "assay": "NCI DTP screen (SRB), Breast Cancer", "assay_type": "cell-based", "settings": "Homo sapiens", "protocol": "(§6) After 24 h, two plates of each cell line are fixed in situ with TCA, to represent a measurement of the cell population for each cell line at the time of drug addition (Tz). Experimental drugs are solubilized in dimethyl sulfoxide at 400-fold the desired final maximum test concentration and stored frozen prior to use. […]\n(§7) Following drug addition, the plates are incubated for an additional 48 h at 37° C., 5% CO2, 95% air, and 100% relative humidity. […] Bound stain is subsequently solubilized with 10 mM trizma base, and the absorbance is read on an automated plate reader at a wavelength of 515 nm. […] Using the seven absorbance measurements [time zero, (Tz), control growth, (C), and test growth in the presence of drug at the five concentration levels (Ti)], the percentage growth is calculated at each of the drug concentrations levels. Percentage growth inhibition is calculated as: [(Ti−Tz)/(C−Tz)]×100 for concentrations for which Ti>/=Tz [(Ti−Tz)/Tz]×100 for concentrations for which Ti<Tz […]"}, "KM12": {"test_system": "KM12", "assay": "NCI DTP screen (SRB), Colon Cancer", "assay_type": "cell-based", "settings": "Homo sapiens", "description": "as §2, §3, §5, §4"}, "HCT-116": {"test_system": "HCT-116", "assay": "NCI DTP screen (SRB), Colon Cancer", "assay_type": "cell-based", "settings": "Homo sapiens", "description": "as §2, §3, §5, §4"}, "SW-620": {"test_system": "SW-620", "assay": "NCI DTP screen (SRB), Colon Cancer", "assay_type": "cell-based", "settings": "Homo sapiens", "description": "as §2, §3, §5, §4"}, "COLO 205": {"test_system": "COLO 205", "assay": "NCI DTP screen (SRB), Colon Cancer", "assay_type": "cell-based", "settings": "Homo sapiens", "description": "as §2, §3, §5, §4"}, "recombinant PDK-1": {"molecular_target": "T1, recombinant PDK-1 (Homo sapiens, UniProt O15530)", "T1 construct": "purchased Upstate (Lake Placid, N.Y.)", "T1 sequence (O15530 1-556)": "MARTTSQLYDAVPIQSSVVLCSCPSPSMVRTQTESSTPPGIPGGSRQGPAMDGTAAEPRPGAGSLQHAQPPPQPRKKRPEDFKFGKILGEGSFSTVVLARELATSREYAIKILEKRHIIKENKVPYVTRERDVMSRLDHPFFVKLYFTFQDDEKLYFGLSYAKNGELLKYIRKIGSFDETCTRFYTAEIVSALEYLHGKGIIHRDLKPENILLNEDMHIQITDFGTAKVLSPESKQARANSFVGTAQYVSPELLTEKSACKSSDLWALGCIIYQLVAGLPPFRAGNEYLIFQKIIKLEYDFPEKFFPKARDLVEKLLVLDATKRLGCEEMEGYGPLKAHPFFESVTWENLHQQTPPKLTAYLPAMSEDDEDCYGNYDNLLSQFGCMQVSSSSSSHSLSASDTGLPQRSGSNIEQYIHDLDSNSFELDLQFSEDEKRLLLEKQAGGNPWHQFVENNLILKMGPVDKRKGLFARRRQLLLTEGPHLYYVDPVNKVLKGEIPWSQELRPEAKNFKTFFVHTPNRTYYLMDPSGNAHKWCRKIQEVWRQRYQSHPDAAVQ", "assay": "PDK-1 kinase activity (Upstate kit, SGK-coupled, cell-free)", "assay_type": "biochemical", "protocol": "PDK-1 kinase activity This in vitro assay was performed using a PDK-1 kinase assay kit (Upstate, Lake Placid, N.Y.) according to the vendor's instructions. This cell-free assay is based on the ability of recombinant PDK-1, in the presence of DMSO vehicle or the test agent, to activate its downstream kinase serum- and glucocorticoid-regulated kinase (SGK.) which, in turn, phosphorylates the Akt/SGK-specific peptide substrate RPRAATF with [γ-^32]-ATP. […] The reported values represent the means of two independent determinations."}, "HOP-92": {"test_system": "HOP-92", "assay": "NCI DTP screen (SRB), Non-Small Cell Lung Cancer", "assay_type": "cell-based", "settings": "Homo sapiens, HOP-92, read-out: LC50", "protocol": "as §6, §7"}, "K-562": {"test_system": "K-562", "assay": "NCI DTP screen (SRB), Leukemia", "assay_type": "cell-based", "settings": "Homo sapiens", "description": "as §2, §3, §5, §4"}, "MOLT-4": {"test_system": "MOLT-4", "assay": "NCI DTP screen (SRB), Leukemia", "assay_type": "cell-based", "settings": "Homo sapiens", "description": "as §2, §3, §5, §4"}, "SR": {"test_system": "SR", "assay": "NCI DTP screen (SRB), Leukemia", "assay_type": "cell-based", "description": "as §2, §3, §5, §4"}, "RPMI-8226": {"test_system": "RPMI-8226", "assay": "NCI DTP screen (SRB), Leukemia", "assay_type": "cell-based", "settings": "Homo sapiens", "description": "as §2, §3, §5, §4"}},
  "data": [
    {"smiles": "NCC(=O)Nc1ccc(-n2nc(C(F)(F)F)cc2-c2ccc3c(ccc4ccccc43)c2)cc1", "note": "[Compound 70, 2-Amino-N-{4-[5-(2-phenanthrenyl)-3-(trifluoromethyl)-1H-pyrazol-1-yl]-phenyl}-acetamide]", "values": [
      {"measurement": "GI50", "setting": "U251", "value": 775, "unit": "nM"},
      {"measurement": "GI50", "setting": "PC-3; PC-3", "value": 705, "unit": "nM"},
      {"measurement": "CC50", "setting": "PC-3; PC-3, read-out: LC50", "value": 6020, "unit": "nM"},
      {"measurement": "GI50", "setting": "DU-145; DU-145", "value": 1730, "unit": "nM"},
      {"measurement": "CC50", "setting": "DU-145; DU-145, read-out: LC50", "value": 6950, "unit": "nM"},
      {"measurement": "GI50", "setting": "UO-31", "value": 1370, "unit": "nM"},
      {"measurement": "GI50", "setting": "RXP 393; Homo sapiens", "value": 1140, "unit": "nM"},
      {"measurement": "Percent Growth", "setting": "RXP 393; Log10 Concentration −4.0", "value": 10, "unit": "%"},
      {"measurement": "Mean Optical Densities", "setting": "RXP 393; Log10 Concentration −7.0", "value": 0.700},
      {"measurement": "Mean Optical Densities", "setting": "RXP 393; Log10 Concentration −8.0", "value": 0.766},
      {"measurement": "GI50", "setting": "BT-549; BT-549", "value": 1250, "unit": "nM"},
      {"measurement": "CC50", "setting": "BT-549; BT-549, read-out: LC50", "value": 6980, "unit": "nM"},
      {"measurement": "GI50", "setting": "KM12; KM12", "value": 1070, "unit": "nM"},
      {"measurement": "CC50", "setting": "KM12; KM12, read-out: LC50", "value": 6620, "unit": "nM"},
      {"measurement": "GI50", "setting": "HCT-116; HCT-116", "value": 1270, "unit": "nM"},
      {"measurement": "CC50", "setting": "HCT-116; HCT-116, read-out: LC50", "value": "> 100000", "unit": "nM"},
      {"measurement": "GI50", "setting": "SW-620; SW-620", "value": 1120, "unit": "nM"},
      {"measurement": "CC50", "setting": "SW-620; SW-620, read-out: LC50", "value": "> 100000", "unit": "nM"},
      {"measurement": "GI50", "setting": "COLO 205", "value": 1190, "unit": "nM"},
      {"measurement": "IC50", "setting": "recombinant PDK-1; inhibiting recombinant PDK-1 kinase activity, read-out: IC50 PDK-1", "value": 5000, "unit": "nM"},
      {"measurement": "increase in PDK-1 inhibition potency over compound 59", "setting": "recombinant PDK-1; ratio of IC50 values", "value": "two-"},
      {"measurement": "CC50", "setting": "HOP-92", "value": 5870, "unit": "nM"},
      {"measurement": "CC50", "setting": "K-562; K562, read-out: LC50", "value": "> 100000", "unit": "nM"},
      {"measurement": "GI50", "setting": "K-562; K562, K-562", "value": 257, "unit": "nM"},
      {"measurement": "GI50", "setting": "MOLT-4; MOLT-4", "value": 636, "unit": "nM"},
      {"measurement": "CC50", "setting": "MOLT-4; MOLT-4, read-out: LC50", "value": "> 100000", "unit": "nM"},
      {"measurement": "GI50", "setting": "SR; Homo sapiens", "value": 711, "unit": "nM"},
      {"measurement": "CC50", "setting": "SR; Homo sapiens, read-out: LC50", "value": "> 100000", "unit": "nM"},
      {"measurement": "Mean Optical Densities", "setting": "SR; Log10 Concentration −8.0", "value": 0.816},
      {"measurement": "GI50", "setting": "RPMI-8226", "value": 537, "unit": "nM"}
    ]}
  ]
}
